{"source": "paper PMC9221443", "about": "“Peptidomimetics Based on C-Terminus of Blm10 Stimulate Human 20S Proteasome Activity and Promote Degradation of Proteins” (Biomolecules, 2022)", "key": {"[1]": {"test_system": "ChT-L peptidase of proteasome in HEK293T cell extracts", "assay": "Proteasome ChT-L activity in HEK293T cell lysates", "type": "biochemical, human", "conditions": "1 µM; HEK293T lysate 20 µg/mL protein; 100 µM Suc-LLVY-AMC", "method": "Human embryonic kidney cells (HEK293T) were maintained in Dulbecco’s Modified Eagle Medium (DMEM) supplemented with 10% Fetal Bovine Serum and penicillin/streptomycin (100 units/mL/100 µg/mL), at 37 °C with 5% CO2. Cells were grown in a T-75 flask to ~80% confluency and then were lysed using Reporter Lysis Buffer (Promega, Madison, WI, USA) and the manufacturer’s protocol. Protein content was measured using BCA assay. Stock solutions of the fluorogenic substrate (Suc-LLVY-AMC) and the tested peptidomimetics were prepared in dimethyl sulfoxide (DMSO). Potential activators were tested in the following concentrations: 1, 5, 10, 25 and 50 μM. The final DMSO concentration was kept constant at 2%. The activity assays were performed analogously to those described in the proteasome activity assays subsection, in the 96-well plate format in 50 mM Tris-HCl buffer, pH 8.0, using a 100 μL reaction volume. The final concentration of the fluorogenic substrate and cell lysate proteins were: 100 μM and 20 µg/mL, respectively. As a negative control, 1 μM bortezomib solution was used."}, "[2]": {"target": "20S proteasome (h20S)", "assay": "Microscale thermophoresis (MST) protein-proteasome interaction", "type": "binding, human", "conditions": "NT-647-labeled protein titrated with h20S 0.06-1965 nM, 22 °C, 20 mM Tris-HCl pH 7.2, three independent experiments", "method": "Enolase, α-synuclein and their oxidized forms were labeled using Monolith Protein Labeling Kit RED-NHS 2nd Generation Amine Reactive, NT-647 (Nanotemper, München, Germany), according to the manufacturer instructions. The labeling process was carried out in 50 mM HEPES buffer, pH 7.4, in the protein:NT-647 1:2 ratio. The incubation time was 60 min for enolase and 30 min for α-synuclein, at 21 °C. After labeling, the excess of the fluorescent reagent was removed using the columns provided by the manufacturer and 20 mM Tris-HCl buffer, pH 7.2, containing 200 mM NaCl and 10% glycerol. The obtained labeled proteins were concentrated on Amicon 3K spin-columns (Merck, Darmstadt, Germany). Protein concentrations were determined by measuring absorbance at 280 nm, using UV/Vis spectrophotometer (DU®730 Beckman Coulter).\nDirect interactions between the fluorescently labeled, native and oxidized, proteins and the 20S proteasome were examined using microscale thermophoresis (NanoTemper Monolith NT.115). The labeled protein concentration was kept constant at 250 nM for native and oxidized α-synuclein and 125 nM and 25 nM for native and oxidized enolase, respectively. […] The EC50 values were calculated based on results obtained in three independent experiments."}}, "data": [{"compound": "CC(C)C[C@H](NC(=O)[C@H](Cc1ccccc1)NC(=O)c1cnccn1)B(O)O", "note": "[bortezomib]", "values": [{"measurement": "degradation of Suc-LLVY-AMC substrate in cell extracts (negative control)", "setting": "[1]", "value": "completely blocked"}]}, {"compound": "enolase: native human enolase 2, 434-residue thermolabile protein, model substrate", "values": [{"measurement": "EC50 of binding to 20S proteasome (MST, Hill fit)", "setting": "[2]", "value": "did not bind"}]}, {"compound": "α-synuclein", "values": [{"measurement": "EC50", "setting": "[2]; read-out: EC50 of binding to 20S proteasome (MST, Hill fit)", "value": "32.3 ± 1.3", "unit": "nM"}]}]}
